Structures are written as SMILES.

The data set in a line: Kinetic aqueous solubility (nephelometric assay). It is filed as physicochemical. To be noted: kinetic from dmso stock; Table 9; kinetic solubility in water (nephelometric assay). The source says: Solubility. The maximum aqueous solubility of analogs will be initially determined by nephelometry using a published method (44).
Regarding `CC[C@@H](Oc1ncc(Cl)cc1Cl)C(=O)NCc1cccc(C(=O)NCC2CC3(C2)CN(CCC(=O)[O-])C3)c1.[Li+]` [MBX-5522A], the solubility (kinetic) is not below 400 µM.
On to `CC[C@@H](Oc1ncc(Cl)cc1Cl)C(=O)NCc1cccc(C(=O)NC2CC3(C2)CN(CCCC(=O)[O-])C3)c1.[Li+]` [MBX-5524A], for which the solubility (kinetic) was not below 400 µM.
The result for `CC[C@@H](Oc1ncc(Cl)cc1Cl)C(=O)NCc1cccc(C(=O)NC2CC3(C2)CN(CC(=O)[O-])C3)c1.[Li+]` [MBX-5527A] reads not below 400 µM; that for `CC[C@@H](Oc1ncc(Cl)cc1Cl)C(=O)NCc1cccc(C(=O)N2CC3(CC(NCCC(=O)[O-])C3)C2)c1.[Li+]` [MBX-5529A], not below 400 µM.
For `CC[C@@H](Oc1ncc(Cl)cc1Cl)C(=O)NCc1cccc(CC(=O)NC2CC3(C2)CN(CCC(=O)[O-])C3)c1.[Li+]` [MBX-5548A] the value was 200 µM; for `CC[C@@H](Oc1ncc(Cl)cc1Cl)C(=O)NCc1cccc(NC(=O)N2CC3(CN(CC(C)(C)C(=O)[O-])C3)C2)c1.[Li+]` [MBX-7061A], 1.1 µM.
`CC[C@@H](Oc1ncc(Cl)cc1Cl)C(=O)NCc1cccc(NC(=O)N2CC3(CN(CCC(=O)[O-])C3)C2)c1.[Li+]` [MBX-7062A] gave a solubility (kinetic) of 3.5 µM.

As usually defined, the kinetic solubility is the concentration staying in solution when a stock, usually in DMSO, is diluted into the medium.
